Assay results from US20200223889A1, “Bicyclic Compounds Capable of Binding to Melanocortin 4 Receptor” (Novo Nordisk A/S, priority 2017, published 2020).
Like-named read-outs stand apart in the source and are kept apart here. Positions of bridges follow the written chain, without caps; N, C: chain ends. Non-standard residues stand in square brackets, D forms with d. Residues, ends and D or L forms follow the SMILES beside them. Phe(3,4-Cl2) = N[C@@H](Cc1ccc(Cl)c(Cl)c1)C(=O)O; Pip = O=C(O)[C@@H]1CCCCN1; Aib = CC(C)(N)C(=O)O; Sar = CNCC(=O)O

What was measured:
human MC4R [1] = target: T1, human MC4R (Homo sapiens, UniProt P32245); assay: 125NDP-α-MSH competitive binding to membranes of BHK cells expressing human MC4 receptor (filtration assay)
T1 construct: expressed in transfected cells
How it was run: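 Displacement of ^125NDP-α-MSH (apx. […] final) was measured by filtration after 2 h at 25 °C, using diluted membranes of stably transfected BHK cells in pH 7.0 HEPES buffer. Compounds spanned 1 μM to 0.001 nM; binding curves were analysed by non-linear regression.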

human MC4R [2] = target: T1, human MC4R; assay: Functional cAMP assay (CisBio HTRF) in BHK cells expressing human MC4R; assay type: cell-based; conditions: for MC1R/MC4R cAMP EC50 ratio: MC1R cAMP EC50 divided by MC4R cAMP EC50
How it was run: (§1)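 Compound working solutions, 10-fold dilutions from 2 μM at twice final strength, in buffer containing 1 mM IBMX, were incubated 30 min at 25 °C with BHK cells stably carrying human MC4R or MC1R. Accumulated cAMP was then detected by competitive HTRF after 1 h at 25 °C and fitted by non-linear regression.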

human MC1R = target: T2, human MC1R (Homo sapiens, UniProt Q01726); assay: Functional cAMP assay (CisBio HTRF) in BHK cells expressing human MC1R; assay type: cell-based
T2 construct: expressed in transfected cells
How it was run: as §1

[3] = human MC4R, BHK cell membranes, 125NDP-α-MSH radioligand, read-out: MC4R binding Ki
[4] = BHK cells expressing human MC4R, '>' = highest dose used with no response, read-out: MC4R cAMP EC50
[5] = BHK cells expressing human MC1R, '>' = highest dose used with no response, read-out: MC1R cAMP EC50

T2 sequence (Q01726 whole entry): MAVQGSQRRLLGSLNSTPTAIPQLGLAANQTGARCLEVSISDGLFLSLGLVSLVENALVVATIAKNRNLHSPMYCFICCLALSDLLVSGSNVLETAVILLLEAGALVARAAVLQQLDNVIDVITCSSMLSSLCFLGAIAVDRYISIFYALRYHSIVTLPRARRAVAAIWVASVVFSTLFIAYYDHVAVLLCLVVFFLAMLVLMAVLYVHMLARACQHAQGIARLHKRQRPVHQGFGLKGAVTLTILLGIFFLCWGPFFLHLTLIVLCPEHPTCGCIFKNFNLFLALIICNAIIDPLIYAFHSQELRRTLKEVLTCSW
T1 sequence (P32245 whole entry): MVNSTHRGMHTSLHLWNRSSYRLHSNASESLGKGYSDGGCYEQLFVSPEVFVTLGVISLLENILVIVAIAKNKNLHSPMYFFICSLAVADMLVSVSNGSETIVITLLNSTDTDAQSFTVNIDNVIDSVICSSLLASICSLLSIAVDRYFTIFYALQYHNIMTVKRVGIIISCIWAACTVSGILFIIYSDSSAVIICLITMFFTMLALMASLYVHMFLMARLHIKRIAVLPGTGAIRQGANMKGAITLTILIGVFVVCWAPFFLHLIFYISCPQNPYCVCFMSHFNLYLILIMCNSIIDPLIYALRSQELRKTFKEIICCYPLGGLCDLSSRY

SMILES | Ki (human MC4R [1]; [3]) [nM] | EC50 (human MC4R [2]; [4]) [nM] | MC1R/MC4R cAMP EC50 ratio (human MC4R [2]) | EC50 (human MC1R; [5]) [nM] | Ki (human MC4R [1]) [nM] | EC50 (human MC4R [2]) [nM] | EC50 (human MC1R) [nM]
C[C@@H]1NC(=O)[C@@H]2CSSC[C@H](NC(=O)[C@H](CCCNC(=N)N)NC(=O)[C@H](CCCCN)NC(=O)[C@H](CCCCN)NC(=O)[C@H](CCCCN)NC1=O)C(=O)N(C)CC(=O)N[C@@H](Cc1c[nH]cn1)C(=O)N[C@H](Cc1ccccc1)C(=O)N[C@@H](Cc1c[nH]cn1)C(=O)N[C@@H](Cc1c[nH]c3ccccc13)C(=O)N2 [Chem. 74, c[c[Cys-Sar-His-D-Phe-His-Trp-Cys]- Ala-Lys-Lys-Lys-Arg]] (cyclo(AKKKRC[Sar]H[dF]HWC); disulfide 6-12) | 0.08 | 0.29 | 19 | > 5.5 |  |  | 
C[C@@H]1NC(=O)[C@@H]2CSSC[C@H](NC(=O)[C@H](Cc3c[nH]c4ccccc34)NC(=O)[C@H](CCCNC(=N)N)NC(=O)[C@@H](Cc3ccccc3)NC(=O)[C@H](Cc3c[nH]cn3)NC1=O)C(=O)N[C@@H](C)C(=O)N[C@@H](Cc1ccc(O)cc1)C(=O)N[C@@H](Cc1ccccc1)C(=O)N[C@@H](CCCCN)C(=O)N[C@@H](Cc1c[nH]c3ccccc13)C(=O)N2 [Chem. 80, c[c[Cys-Ala-His-D-Phe-Arg-Trp-Cys]- Ala-Tyr-Phe-Lys-Trp]] (cyclo(AH[dF]RWCAYFKWC); disulfide 6-12) | 0.16 | 0.15 | 58 | 8.65 |  |  | 
C[C@@H]1NC(=O)[C@@H]2CSSC[C@H](NC(=O)[C@H](Cc3c[nH]c4ccccc34)NC(=O)[C@H](CCCCN)NC(=O)[C@H](CCCCN)NC(=O)[C@H](CCCCN)NC1=O)C(=O)N1CCCC[C@H]1C(=O)N[C@@H](Cc1c[nH]cn1)C(=O)N[C@H](Cc1ccccc1)C(=O)N[C@@H](Cc1c[nH]cn1)C(=O)N[C@@H](Cc1c[nH]c3ccccc13)C(=O)N2 [Chem. 83, c[c[Cys-PIP-His-D-Phe-His-Trp-Cys]- Ala-Lys-Lys-Lys-Trp]] (cyclo(AKKKWC[Pip]H[dF]HWC); disulfide 6-12) | 0.17 |  | >5 | > 10 |  |  | 
C[C@@H]1NC(=O)[C@H](C)NC(=O)[C@H](C)NC(=O)[C@@H]2CSSC[C@H](NC(=O)[C@H](Cc3c[nH]c4ccccc34)NC(=O)[C@H](C)NC1=O)C(=O)N[C@@H](C)C(=O)N[C@@H](Cc1c[nH]cn1)C(=O)N[C@H](Cc1ccccc1)C(=O)N[C@@H](CCCNC(=N)N)C(=O)N[C@@H](Cc1c[nH]c3ccccc13)C(=O)N2 [Chem. 87, c[c[Cys-Ala-His-D-Phe-Arg-Trp-Cys]- Ala-Ala-Ala-Ala-Trp]] (cyclo(AAAAWCAH[dF]RWC); disulfide 6-12) |  |  | 35 |  | 0.17 | 0.04 | 1.39
C[C@@H]1NC(=O)[C@H](C)NC(=O)[C@@H]2CSSC[C@H](NC(=O)[C@H](Cc3c[nH]c4ccccc34)NC(=O)[C@H](C)NC(=O)[C@@H](C)NC1=O)C(=O)N[C@@H](C)C(=O)N[C@@H](Cc1c[nH]cn1)C(=O)N[C@H](Cc1ccccc1)C(=O)N[C@@H](CCCNC(=N)N)C(=O)N[C@@H](Cc1c[nH]c3ccccc13)C(=O)N2 [Chem. 88, c[c[Cys-Ala-His-D-Phe-Arg-Trp-Cys]- Ala-Ala-D-Ala-Ala-Trp]] (cyclo(AA[dA]AWCAH[dF]RWC); disulfide 6-12) |  |  | 66 |  | 0.2 | 0.02 | 1.31
C[C@@H]1NC(=O)[C@H](C)NC(=O)[C@H](C)NC(=O)[C@@H]2CSSC[C@H](NC(=O)[C@H](CCCNC(=N)N)NC(=O)[C@H](C)NC1=O)C(=O)N[C@@H](C)C(=O)N[C@@H](Cc1c[nH]cn1)C(=O)N[C@H](Cc1ccccc1)C(=O)N[C@@H](CCCNC(=N)N)C(=O)N[C@@H](Cc1c[nH]c3ccccc13)C(=O)N2 [Chem. 89, c[c[Cys-Ala-His-D-Phe-Arg-Trp-Cys]- Ala-Ala-Ala-Ala-Arg]] (cyclo(AAAARCAH[dF]RWC); disulfide 6-12) |  |  | 30 |  | 0.07 | 0.02 | 0.59
C[C@@H]1NC(=O)[C@H](C)NC(=O)[C@@H]2CSSC[C@H](NC(=O)[C@H](CCCNC(=N)N)NC(=O)[C@H](C)NC(=O)[C@@H](C)NC1=O)C(=O)N[C@@H](C)C(=O)N[C@@H](Cc1c[nH]cn1)C(=O)N[C@H](Cc1ccccc1)C(=O)N[C@@H](CCCNC(=N)N)C(=O)N[C@@H](Cc1c[nH]c3ccccc13)C(=O)N2 [Chem. 90, c[c[Cys-Ala-His-D-Phe-Arg-Trp-Cys]- Ala-Ala-D-Ala-Ala-Arg]] (cyclo(AA[dA]ARCAH[dF]RWC); disulfide 6-12) |  |  | 65 |  | 0.11 | 0.01 | 0.65

The remaining compounds from weak to strong by Ki (human MC4R [1]; [3]), led by results:

Ki (human MC4R [1]; [3]) [nM] | EC50 (human MC4R [2]; [4]) [nM] | MC1R/MC4R cAMP EC50 ratio (human MC4R [2]) | EC50 (human MC1R; [5]) [nM] | SMILES | Ki (human MC4R [1]) [nM] | EC50 (human MC4R [2]) [nM] | EC50 (human MC1R) [nM]
0.6 |  | >20 | > 55 | C[C@@H]1NC(=O)[C@@H]2CSSC[C@H](NC(=O)[C@H](Cc3c[nH]c4ccccc34)NC(=O)[C@H](CCCCN)NC(=O)[C@H](CCCCN)NC(=O)[C@H](CCCCN)NC1=O)C(=O)N1CCC[C@@H]1C(=O)N[C@@H](Cc1c[nH]cn1)C(=O)N[C@H](Cc1ccccc1)C(=O)N[C@@H](Cc1c[nH]cn1)C(=O)N[C@@H](Cc1c[nH]c3ccccc13)C(=O)N2 [Chem. 98, c[c[Cys-D-Pro-His-D-Phe-His-Trp- Cys]-Ala-Lys-Lys-Lys-Trp]] (cyclo(AKKKWC[dP]H[dF]HWC); disulfide 6-12) |  |  | 
0.3 |  | >40 | > 50 | C[C@@H]1NC(=O)[C@@H]2CSSC[C@H](NC(=O)[C@H](Cc3c[nH]c4ccccc34)NC(=O)[C@H](CCCCN)NC(=O)[C@H](CCCCN)NC(=O)[C@H](CCCCN)NC1=O)C(=O)N(C)CC(=O)N[C@@H](Cc1c[nH]cn1)C(=O)N[C@H](Cc1ccccc1)C(=O)N[C@@H](Cc1c[nH]cn1)C(=O)N[C@@H](Cc1c[nH]c3ccccc13)C(=O)N2 [Chem. 73, c[c[Cys-Sar-His-D-Phe-His-Trp-Cys]- Ala-Lys-Lys-Lys-Trp]] (cyclo(AKKKWC[Sar]H[dF]HWC); disulfide 6-12) |  |  | 
0.22 | 0.31 | >3 | > 1 | C[C@@H]1NC(=O)[C@@H]2CSSC[C@H](NC(=O)[C@H](Cc3c[nH]c4ccccc34)NC(=O)[C@H](CCCCN)NC(=O)[C@H](CCCCN)NC(=O)[C@H](CCCCN)NC1=O)C(=O)NC(C)(C)C(=O)N[C@@H](Cc1c[nH]cn1)C(=O)N[C@H](Cc1ccccc1)C(=O)N[C@@H](Cc1c[nH]cn1)C(=O)N[C@@H](Cc1c[nH]c3ccccc13)C(=O)N2 [Chem. 61, c[c[Cys-Aib-His-D-Phe-His-Trp-Cys]- Ala-Lys-Lys-Lys-Trp]] (cyclo(AKKKWC[Aib]H[dF]HWC); disulfide 6-12) |  |  | 
0.13 | 0.17 | >6 | > 1 | C[C@@H]1NC(=O)[C@@H]2CSSC[C@H](NC(=O)[C@H](Cc3c[nH]c4ccccc34)NC(=O)[C@H](CCCCN)NC(=O)[C@H](CCCCN)NC(=O)[C@H](CCCCN)NC1=O)C(=O)N1CCC[C@H]1C(=O)N[C@@H](Cc1c[nH]cn1)C(=O)N[C@H](Cc1ccccc1)C(=O)N[C@@H](Cc1c[nH]cn1)C(=O)N[C@@H](Cc1c[nH]c3ccccc13)C(=O)N2 [Chem. 62, c[c[Cys-Pro-His-D-Phe-His-Trp-Cys]- Ala-Lys-Lys-Lys-Trp]] (cyclo(AKKKWCPH[dF]HWC); disulfide 6-12) |  |  | 
0.03 | 0.01 | 22 | 0.22 | C[C@@H]1NC(=O)[C@@H]2CSSC[C@H](NC(=O)[C@H](Cc3ccc(Cl)c(Cl)c3)NC(=O)[C@H](CCCNC(=N)N)NC(=O)[C@@H](Cc3ccccc3)NC(=O)[C@H](Cc3c[nH]cn3)NC1=O)C(=O)N[C@@H](C)C(=O)N[C@@H](CCCCN)C(=O)N[C@@H](CCCCN)C(=O)N[C@@H](CCCCN)C(=O)N[C@@H](Cc1c[nH]c3ccccc13)C(=O)N2 [Chem. 66, c[c[Cys-Ala-His-D-Phe-Arg-3,4-DiCl- Phe-Cys]-Ala-Lys-Lys-Lys-Trp]] (cyclo(AH[dF]R[Phe(3,4-Cl2)]CAKKKWC); disulfide 6-12) |  |  | 
0.02 | 0.01 | 22 | 0.22 | C[C@@H]1NC(=O)[C@@H]2CSSC[C@H](NC(=O)[C@H](CCCNC(=N)N)NC(=O)[C@H](CCCCN)NC(=O)[C@H](CCCCN)NC(=O)[C@H](CCCCN)NC1=O)C(=O)N[C@H](C)C(=O)N[C@@H](Cc1c[nH]cn1)C(=O)N[C@H](Cc1ccccc1)C(=O)N[C@@H](CCCNC(=N)N)C(=O)N[C@@H](Cc1c[nH]c3ccccc13)C(=O)N2 [Chem. 85, c[c[Cys-D-Ala-His-D-Phe-Arg-Trp- Cys]-Ala-Lys-Lys-Lys-Arg]] (cyclo(AKKKRC[dA]H[dF]RWC); disulfide 6-12) |  |  | 
0.01 | 0.004 | 40 | 0.16 | C[C@@H]1NC(=O)[C@@H]2CSSC[C@H](NC(=O)[C@H](Cc3c[nH]c4ccccc34)NC(=O)[C@H](CCCNC(=N)N)NC(=O)[C@@H](Cc3ccccc3)NC(=O)[C@H](Cc3c[nH]cn3)NC1=O)C(=O)N[C@@H](C)C(=O)N[C@@H](CCCCN)C(=O)N[C@@H](CCCCN)C(=O)N[C@@H](CCCCN)C(=O)N[C@@H](CCCNC(=N)N)C(=O)N2 [Chem. 59, c[c[Cys-Ala-His-D-Phe-Arg-Trp-Cys]- Ala-Lys-Lys-Lys-Arg]] (cyclo(AH[dF]RWCAKKKRC); disulfide 6-12) |  |  | 
